Source: BindingDB's records for doi:10.1016/j.bmc.2016.08.054 (National Institute of Public Health-National Institute of …, 2016)

target: Aminopeptidase N (Sus scrofa) (UniProt P15145); experiment: Inhibition of porcine kidney microsomal LAP using l-leucine-7-amido-4-methylcoumarin as substrate incubated for 10 hrs measured every 6 mins by fluorescence assay
Sequence (P15145 whole entry, looked up): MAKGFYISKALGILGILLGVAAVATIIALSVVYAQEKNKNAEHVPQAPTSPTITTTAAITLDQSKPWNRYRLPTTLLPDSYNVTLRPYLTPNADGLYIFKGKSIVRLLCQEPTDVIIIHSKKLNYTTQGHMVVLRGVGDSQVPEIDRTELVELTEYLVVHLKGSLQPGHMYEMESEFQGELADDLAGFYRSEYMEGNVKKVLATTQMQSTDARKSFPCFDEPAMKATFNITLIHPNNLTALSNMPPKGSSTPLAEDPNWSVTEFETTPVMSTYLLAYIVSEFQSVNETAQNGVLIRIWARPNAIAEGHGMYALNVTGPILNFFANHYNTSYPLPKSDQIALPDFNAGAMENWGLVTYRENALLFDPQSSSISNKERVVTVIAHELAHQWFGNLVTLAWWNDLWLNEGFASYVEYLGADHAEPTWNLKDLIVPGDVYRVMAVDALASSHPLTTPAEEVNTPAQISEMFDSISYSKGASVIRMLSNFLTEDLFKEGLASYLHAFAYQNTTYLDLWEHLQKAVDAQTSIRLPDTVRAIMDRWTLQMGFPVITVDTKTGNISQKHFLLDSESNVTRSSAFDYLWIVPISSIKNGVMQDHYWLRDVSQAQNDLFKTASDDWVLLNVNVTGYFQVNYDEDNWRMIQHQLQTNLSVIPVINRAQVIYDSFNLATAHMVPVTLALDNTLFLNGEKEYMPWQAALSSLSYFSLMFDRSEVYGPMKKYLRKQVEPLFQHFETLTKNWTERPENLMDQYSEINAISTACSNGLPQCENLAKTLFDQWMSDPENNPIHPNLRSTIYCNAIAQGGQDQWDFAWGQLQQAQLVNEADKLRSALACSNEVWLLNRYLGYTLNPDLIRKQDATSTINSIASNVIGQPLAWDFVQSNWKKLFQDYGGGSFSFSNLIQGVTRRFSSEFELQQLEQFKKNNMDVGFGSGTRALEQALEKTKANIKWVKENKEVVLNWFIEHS

IC50 [µM] | Compound
33.6 | CCOC(=O)C1(C(=O)OCC)Cc2cc(OCc3ccccc3)cc(OCc3ccccc3)c2C=N1

target: Aminopeptidase N (Sus scrofa) (UniProt P15145); experiment: Inhibition of porcine kidney microsomal LAP using l-leucine-7-amido-4-methylcoumarin as substrate incubated for 60 mins measured every 3 mins by fluorescence assay

Compound | IC50 [µM]
O=C(O)C1Cc2cc(O)c(O)cc2C=N1 (configuration not stated) | 111
COc1cc2c(cc1OC)CCC(C(=O)OCc1ccccc1)(C(=O)OCc1ccccc1)N=C2 | 1050
O=C(O)C1Cc2cc(O)c(O)c(I)c2C=N1 (configuration not stated) | 63.6
O=C(O)C1Cc2cc(O)c(I)cc2C=N1 (configuration not stated) | 69.3
O=C(O)C1Cc2cc(O)c(Br)c(O)c2C=N1 (configuration not stated) | 76.8
CCOC(=O)C1(C(=O)OCC)Cc2cc(OCc3ccccc3)cc(OCc3ccccc3)c2C=N1 | 16.5

Further compounds by falling IC50, results first:

IC50 [µM] | Compound
781 | O=C(O)C1Cc2cc(O)c(O)c(O)c2C=N1 (configuration not stated)
409 | O=C(O)C1Cc2c(O)c(O)cc(Br)c2C=N1 (configuration not stated)
379 | O=C(O)C1Cc2cc(O)cc(O)c2C=N1 (configuration not stated)
163 | O=C(O)C1CCc2cc(O)c(O)cc2C=N1 (configuration not stated)
68.3 | O=C(O)C1Cc2cc(O)c(O)c(Br)c2C=N1 (configuration not stated)
